Source: ChEMBL document CHEMBL4346757, “Synthesis and biological evaluation of 7-methoxy-1-(3,4,5-trimethoxyphenyl)-4,5-dihydro-2H-benzo[e]indazoles as new colchicine site inhibitors” (Bioorg Med Chem Lett, 2019)

Key:
Format in all cases: functional
KM12 = assay: Growth inhibition of human KM12 cells assessed as cell growth at 0.01 uM after 48 hrs by SRB assay relative to control; settings: KM12, 48 h, read-out: Activity
SF-268 [1] = assay: Growth inhibition of human SF268 cells assessed as cell growth at 0.01 uM after 48 hrs by SRB assay relative to control; settings: SF-268, 48 h, read-out: Activity
SNB-19 [2] = assay: Growth inhibition of human SNB19 cells assessed as cell growth at 0.01 uM after 48 hrs by SRB assay relative to control; settings: SNB-19, 48 h, read-out: Activity
U-251 = assay: Growth inhibition of human U251 cells assessed as cell growth at 0.01 uM after 48 hrs by SRB assay relative to control; settings: U-251, 48 h, read-out: Activity
SK-MEL-28 = assay: Growth inhibition of human SK-MEL-28 cells assessed as cell growth at 0.01 uM after 48 hrs by SRB assay relative to control; settings: SK-MEL-28, 48 h, read-out: Activity
OVCAR-8 [3] = assay: Growth inhibition of human OVCAR8 cells assessed as cell growth at 0.01 uM after 48 hrs by SRB assay relative to control; settings: OVCAR-8, 48 h, read-out: Activity
RXF 393 [4] = assay: Growth inhibition of human RXF393 cells assessed as cell growth at 0.01 uM after 48 hrs by SRB assay relative to control; settings: RXF 393, 48 h, read-out: Activity
DU-145 = assay: Growth inhibition of human DU145 cells assessed as cell growth at 0.01 uM after 48 hrs by SRB assay relative to control; settings: DU-145, 48 h, read-out: Activity
MDA-MB-231 = assay: Growth inhibition of human MDA-MB-231/ATCC cells assessed as cell growth at 0.01 uM after 48 hrs by SRB assay relative to control; settings: MDA-MB-231, 48 h, read-out: Activity
HOP-92 [5] = assay: Growth inhibition of human HOP92 cells assessed as cell growth at 0.1 uM after 48 hrs by SRB assay relative to control; settings: HOP-92, 48 h, read-out: Activity
COLO 205 = assay: Growth inhibition of human COLO205 cells assessed as cell growth at 0.1 uM after 48 hrs by SRB assay relative to control; settings: COLO 205, 48 h, read-out: Activity
ACHN = assay: Growth inhibition of human ACHN cells assessed as cell growth at 0.1 uM after 48 hrs by SRB assay relative to control; settings: read-out: Activity
RXF 393 [6] = assay: Growth inhibition of human RXF393 cells assessed as cell growth at 0.1 uM after 48 hrs by SRB assay relative to control; settings: RXF 393, 48 h, read-out: Activity
HCT-116 = assay: Growth inhibition of human HCT116 cells assessed as cell growth at 1 uM after 48 hrs by SRB assay relative to control; settings: HCT-116, 48 h, read-out: Activity
SW-620 = assay: Growth inhibition of human SW620 cells assessed as cell growth at 1 uM after 48 hrs by SRB assay relative to control; settings: SW-620, 48 h, read-out: Activity
SNB-19 [7] = assay: Growth inhibition of human SNB19 cells assessed as cell growth at 1 uM after 48 hrs by SRB assay relative to control; settings: SNB-19, 48 h, read-out: Activity
Malme-3M [8] = assay: Growth inhibition of human MALME-3M cells assessed as cell growth at 1 uM after 48 hrs by SRB assay relative to control; settings: read-out: Activity
CAKI-1 [9] = assay: Growth inhibition of human Caki1 cells assessed as cell growth at 1 uM after 48 hrs by SRB assay relative to control; settings: CAKI-1, 48 h, read-out: Activity
SR = assay: Growth inhibition of human SR cells assessed as cell growth at 10 uM after 48 hrs by SRB assay relative to control; settings: read-out: Activity
NCI-H522 [10] = assay: Growth inhibition of human NCI-H522 cells assessed as cell growth at 10 uM after 48 hrs by SRB assay relative to control; settings: NCI-H522, 48 h, read-out: Activity
HCT-15 = assay: Growth inhibition of human HCT15 cells assessed as cell growth at 10 uM after 48 hrs by SRB assay relative to control; settings: HCT-15, 48 h, read-out: Activity
SF-268 [11] = assay: Growth inhibition of human SF268 cells assessed as cell growth at 10 uM after 48 hrs by SRB assay relative to control; settings: SF-268, 48 h, read-out: Activity
OVCAR-8 [12] = assay: Growth inhibition of human OVCAR8 cells assessed as cell growth at 10 uM after 48 hrs by SRB assay relative to control; settings: OVCAR-8, 48 h, read-out: Activity
CAKI-1 [13] = assay: Growth inhibition of human Caki1 cells assessed as cell growth at 10 uM after 48 hrs by SRB assay relative to control; settings: CAKI-1, 48 h, read-out: Activity
MCF7 = assay: Growth inhibition of human MCF7 cells assessed as cell growth at 10 uM after 48 hrs by SRB assay relative to control; settings: MCF7, 48 h, read-out: Activity
HOP-92 [14] = assay: Growth inhibition of human HOP92 cells assessed as cell growth at 100 uM after 48 hrs by SRB assay relative to control; settings: HOP-92, 48 h, read-out: Activity
NCI-H522 [15] = assay: Growth inhibition of human NCI-H522 cells assessed as cell growth at 100 uM after 48 hrs by SRB assay relative to control; settings: NCI-H522, 48 h, read-out: Activity
LOX IMVI = assay: Growth inhibition of human LOXIMVI cells assessed as cell growth at 100 uM after 48 hrs by SRB assay relative to control; settings: read-out: Activity
IGROV-1 = assay: Growth inhibition of human IGROV1 cells assessed as cell growth at 100 uM after 48 hrs by SRB assay relative to control; settings: IGROV-1, 48 h, read-out: Activity
SF-295 = assay: Cytotoxicity against human SF295 cells assessed as growth inhibition after 48 hrs by SRB assay; settings: SF-295, 48 h
Malme-3M [16] = assay: Cytotoxicity against human MALME-3M cells assessed as growth inhibition after 48 hrs by SRB assay
PC-3 = assay: Cytotoxicity against human PC3 cells assessed as growth inhibition after 48 hrs by SRB assay; settings: PC-3, 48 h
T47D = assay: Cytotoxicity against human T47D cells assessed as growth inhibition after 48 hrs by SRB assay
[17] = read-out: LC50 (the source's name)
[18] = read-out: pLC50 (the source's name) (converted)

Structure (SMILES): COc1ccc2c(c1)CCc1n[nH]c(-c3cc(OC)c(OC)c(OC)c3)c1-2
- growth at 0.01 µM (KM12): 14%
- growth at 0.01 µM (SF-268 [1]): 39%
- growth at 0.01 µM (SNB-19 [2]): 33%
- growth at 0.01 µM (U-251): 14%
- growth at 0.01 µM (SK-MEL-28): 53%
- growth at 0.01 µM (OVCAR-8 [3]): 15%
- growth at 0.01 µM (RXF 393 [4]): -8%
- growth at 0.01 µM (DU-145): 13%
- growth at 0.01 µM (MDA-MB-231): 34%
- growth at 0.1 µM (HOP-92 [5]): 30%
- growth at 0.1 µM (COLO 205): -46%
- growth at 0.1 µM (ACHN): 27%
- growth at 0.1 µM (RXF 393 [6]): -2%
- growth at 1 µM (HCT-116): 1%
- growth at 1 µM (SW-620): 14%
- growth at 1 µM (SNB-19 [7]): 34%
- growth at 1 µM (Malme-3M [8]): 44%
- growth at 1 µM (CAKI-1 [9]): 22%
- growth at 10 µM (SR): 9%
- growth at 10 µM (NCI-H522 [10]): -17%
- growth at 10 µM (HCT-15): 3%
- growth at 10 µM (SF-268 [11]): 18%
- growth at 10 µM (OVCAR-8 [12]): 9%
- growth at 10 µM (CAKI-1 [13]): 13%
- growth at 10 µM (MCF7): 5%
- growth at 100 µM (HOP-92 [14]): -50%
- growth at 100 µM (NCI-H522 [15]): -66%
- growth at 100 µM (LOX IMVI): -91%
- growth at 100 µM (IGROV-1): -33%
- GI50 (SF-295; read-out: GI50): < 0.01 µM
- CC50 (SF-295; [17]): 64.5 µM
- TGI (SF-295; read-out: TGI): 3.21 µM
- GI50 (SF-295; read-out: pGI50 (converted)): < 0.01 µM
- CC50 (SF-295; [18]): 64.6 µM
- TGI (SF-295; read-out: pTGI (converted)): 3.24 µM
- GI50 (Malme-3M [16]; read-out: GI50): < 0.01 µM
- CC50 (Malme-3M [16]; [17]): > 100 µM
- TGI (Malme-3M [16]; read-out: TGI): 33.9 µM
- GI50 (Malme-3M [16]; read-out: pGI50 (converted)): < 0.01 µM
- CC50 (Malme-3M [16]; [18]): > 100 µM
- TGI (Malme-3M [16]; read-out: pTGI (converted)): 33.9 µM
- GI50 (PC-3; read-out: GI50): < 0.01 µM
- CC50 (PC-3; [17]): > 100 µM
- TGI (PC-3; read-out: TGI): 17.8 µM
- GI50 (PC-3; read-out: pGI50 (converted)): < 0.01 µM
- CC50 (PC-3; [18]): > 100 µM
- TGI (PC-3; read-out: pTGI (converted)): 17.8 µM
- GI50 (T47D; read-out: GI50): 3.59 µM
- LC50 (T47D; read-out: LC50): 62.5 µM
- TGI (T47D; read-out: TGI): 21.3 µM
- GI50 (T47D; read-out: pGI50 (converted)): 3.63 µM
- LC50 (T47D; read-out: pLC50 (converted)): 63.1 µM
- TGI (T47D; read-out: pTGI (converted)): 21.4 µM
